Measurements published in patent EP0238198A2, “Method of modifying the lipid structure function and expression of cell membranes and pharmaceutical compositions for use therein” (Habib, Nagy Adly, priority 1986, dated 1987).

Assays:
mammary carcinoma = experiment: NMU-induced mammary carcinoma in rats, Example 1; format: in vivo, female Sprague-Dawley rats
Protocol: NMU was administered intravenously to thirty female Sprague-Dawley rats weighing approximately 200g. It has been well established that with this animal model breast cancers will develop in the majority by 12 weeks from the commencement of the giving of the carcinogen (Gullino, P.M., Pettigrew, H.M., and Grantham, E.H., I. National Cancer Inst. 1975, 54, 401-409). The rats were divided into two groups, with those of the first group (twenty rats) receiving NMU alone, and those of the second group (ten rats) receiving NMU plus stearic acid. NMU in 3% acetic acid was dissolved in distilled water (20mg/ml) and was given in three intravenous injections of 5mg/100g body weight at weeks 1, 4 and 8. […] The onset of tumours was monitored by daily inspection and by palpation of the mammary regions twice weekly. At week 22, all surviving animals were sacrificed, and autopsies were performed. The tumours located thereby were dissected and examined histologically. In the control animals who were given carcinogen alone 19 out of the 20 animals had developed breast cancers by week 16 of the experiment, with a mean latent period of 72 days. […] The range of tumour weight/rat was 5g to 47.8g with a mean value of 23.6g per rat (excluding the tumour free animal). […] These five rats had seven tumours in all, with a mean of 1.4 tumours per rat (p less than 0.001 compared to the control group). The range of tumour weight/rat was 4.2g to 21.2g, with an average of 16.4g/rat (p less than 0.01 compared to the control group). […] Of the remaining 8 live rats from this group which were killed at week 22, only three had tumours, the other five being tumour-free.

D23 Rat hepatoma = experiment: tumour cell colony inhibition test (clonogenic assay); format: cell-based; design: inhibition of colony formation: dose or concentration left out as unconfirmed; conditions: for Mean no colonies ± SE: 5 days, medium control 41.8±3.5
Protocol: Cells from rat mammary carcinoma (Sp 22), primary rat fibroblasts (from alveolar tissue) and four rat hepatoma cell lines (D23, D261, D262A and D262B) were studied.
The method used for rat cells was as follows: 200 cells were plated per dish in 1 ml 'Eagles' methionine enriched medium (MEM) + 10% newborn calf serum (NBCS) in 30 mm culture dishes and incubated for four hours at 37°C. All became firmly adherent during this initial incubation. […] To control dishes 1 ml of MEM + NBCS was added, or 1 ml of MEM + NBCS + 1% ethanol. The dishes were incubated for 5 days. Medium was then removed, and the cell colonies were rinsed with 0.9% W/V NaCl solution and fixed for 15 minutes with methanol. Cell colonies were stained with 1% aqueous crystal violet and the dishes were allowed to dry.

D262B Rat hepatoma = experiment: as above; format: cell-based
[1] = NMU plus stearic acid 10mg s.c. weekly
[2] = Rattus norvegicus, 120 h, read-out: % colony formation relative to medium control

CCCCCCCCCCCCCCCCCC(=O)O [stearic acid, octadecanoic acid]
animals that had developed mammary tumours by week 16 (mammary carcinoma; NMU plus stearic acid 10mg in liquid paraffin s.c. weekly from second week, ten rats, NMU alone 19 out of 20): five of the original ten
rats with tumours among the 8 live rats killed at week 22 (mammary carcinoma; [1]): three
tumour-free rats among the 8 live rats killed at week 22 (mammary carcinoma; [1]): five
mean tumours per rat (mammary carcinoma; NMU plus stearic acid 10mg s.c. weekly, NMU alone 2.68, p less than 0.001): 1.4 tumours per rat
average tumour weight (mammary carcinoma; NMU plus stearic acid 10mg s.c. weekly, NMU alone 23.6g per rat, p less than 0.01): 16.4 g/rat
mean latent period (mammary carcinoma; NMU plus stearic acid 10mg s.c. weekly, NMU alone 72 days): 74 days
rats that had died by week 22 (mammary carcinoma; NMU plus stearic acid 10mg s.c. weekly, of ten rats, NMU alone all 19 with tumours died): 2
inhibition of colony formation (D23 Rat hepatoma): significant inhibition of colony formation
activity at 0.01 µg/mL (D23 Rat hepatoma; [2]): 101%
activity at 0.1 µg/mL (D23 Rat hepatoma; [2]): 88.5%
activity at 1 µg/mL (D23 Rat hepatoma; [2]): 67%
activity at 10 µg/mL (D23 Rat hepatoma; [2]): 67%
activity at 50 µg/mL (D23 Rat hepatoma; [2]): 23%
Mean no colonies ± SE (D23 Rat hepatoma; stearic acid 10ng/ml): 42.3±1.6
Mean no colonies ± SE (D23 Rat hepatoma; stearic acid 100 ng/ml): 37.0±1.5
Mean no colonies ± SE (D23 Rat hepatoma; stearic acid 1μg/ml): 28.0±1.5
Mean no colonies ± SE (D23 Rat hepatoma; stearic acid 10 μg/ml): 28.0±2.9
Mean no colonies ± SE (D23 Rat hepatoma; stearic acid 50 μg/ml): 10.0±2.6
activity at 0.01 µg/mL (D262B Rat hepatoma; [2]): 109%
Mean no colonies ± SE (D262B Rat hepatoma; stearic acid 10ng/ml, 5 days, medium control 37.0± 4.0): 40.3± 1.8
